Results as given in patent publication US20220056014A1, “PHENYLPYRROLIDINE COMPOUND AND USE THEREOF” (WUHAN HUMANWELL INNOVATIVE DRUG RESEARCH AND DEVELOPMENT …, priority 2018, published 2022).
Like-named read-outs stand apart in the source and are kept apart here.

Tests used:
PDE4D = target: T1, PDE4D (Homo sapiens, UniProt Q08499); test: PDE4D enzyme activity assay (PDE-Glo Phosphodiesterase Assay Kit); assay type: biochemical
T1 construct: purchased Enzo Life Sciences BML-SE523-0020
Summary of the method: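 Recombinant human PDE4B (1 ng/μl working solution) or PDE4D (4 ng/μl working solution) preincubated 5 min at RT with compound, then reacted 20 min with cAMP (2 μM in added solution). PDE-Glo termination/detection and Kinase-Glo steps followed; luminescence read and IC50 fitted.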

[1] = system: LPS-induced secretion of TNFα in human PBMCs; test: LPS-induced secretion of TNFα in human PBMCs; assay type: cell-based; conditions: Homo sapiens, PBMC, 24 h, LPS 10 ng/ml
Summary of the method: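 PBMCs isolated by Lymphoprep density centrifugation were seeded at 5×10^4/well in RPMI1640 + 10% FBS and given compound, with 30 min pre-incubation, then stimulated with 10 ng/ml LPS (final). After 24 h, supernatant TNF-α was measured by ELISA kit.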

Rat pharmacokinetic test = assay type: in vivo, SD rats; conditions: male, Sprague-Dawley (SD), plasma, oral gavage 10 mg/kg
Description: In the rat pharmacokinetic test, 3 male SD rats (180-240 g) were fasted overnight, and orally administered with 10 mg/kg of compound to be tested. Blood was collected before the administration, and 15 min, 30 min, 1 h, 2 h, 4 h, 8 h, and 24 h hours after the administration. The blood sample was centrifuged at 8000 rpm for 6 min at 4° C., and the plasma was collected and stored at −20° C. The plasma collected at each time point was added and mixed with 3-5 times the amount of acetonitrile solution containing an internal standard, vortexed for 1 min, centrifuged at 13,000 rpm for 10 min at 4° C. The supernatant was taken and mixed with 3 times the amount of water, and an appropriate amount of the mixture was taken for LC-MS/MS analysis. The main pharmacokinetic parameters were analyzed with WinNonlin 7.0 software non-compartmental model.

[2] = system: LPS-stimulated TNF-α release; test: LPS-stimulated TNF-α release in mice; assay type: in vivo, Balb/c mice; conditions: Mus musculus, oral 50 mg/kg (positive control 100 mg/kg), 1 mg/kg LPS i.p.
Summary of the method: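 Balb/c mice (6 per group) dosed orally with 50 mg/kg compound, then 1 mg/kg LPS i.p. 30 min later; serum taken 90 or 120 min post-LPS. Serum TNF-α measured by ELISA; inhibition % calculated relative to model and blank (PBS) groups.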

[3] = 1.5 h, blood 90 min after LPS, read-out: Inhibition rate (%) of LPS-stimulated TNF-α release, 90 min
[4] = 2 h, blood 120 min after LPS, read-out: Inhibition rate (%) of LPS-stimulated TNF-α release, 120 min

T1 sequence (Q08499 whole entry): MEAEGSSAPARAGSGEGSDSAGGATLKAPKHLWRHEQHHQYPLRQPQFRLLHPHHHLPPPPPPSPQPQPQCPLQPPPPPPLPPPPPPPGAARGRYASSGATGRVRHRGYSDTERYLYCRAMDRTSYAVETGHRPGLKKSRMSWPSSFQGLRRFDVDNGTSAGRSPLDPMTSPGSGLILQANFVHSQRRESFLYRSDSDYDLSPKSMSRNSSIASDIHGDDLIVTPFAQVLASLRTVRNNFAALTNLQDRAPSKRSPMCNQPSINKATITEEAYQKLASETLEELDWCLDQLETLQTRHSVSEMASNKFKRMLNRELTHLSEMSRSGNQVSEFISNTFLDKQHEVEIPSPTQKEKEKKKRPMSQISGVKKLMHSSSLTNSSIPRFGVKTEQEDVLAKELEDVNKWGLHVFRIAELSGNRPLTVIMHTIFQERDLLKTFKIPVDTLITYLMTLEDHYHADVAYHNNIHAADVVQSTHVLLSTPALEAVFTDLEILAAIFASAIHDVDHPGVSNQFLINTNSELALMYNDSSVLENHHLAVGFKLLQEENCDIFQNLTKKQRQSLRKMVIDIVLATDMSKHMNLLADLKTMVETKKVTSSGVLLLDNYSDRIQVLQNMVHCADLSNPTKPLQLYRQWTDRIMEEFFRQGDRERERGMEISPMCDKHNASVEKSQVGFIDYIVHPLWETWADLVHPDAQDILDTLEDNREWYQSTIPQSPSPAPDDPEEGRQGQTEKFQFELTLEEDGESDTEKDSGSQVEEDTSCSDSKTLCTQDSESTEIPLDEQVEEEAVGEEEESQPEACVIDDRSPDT

IC50 (PDE4D) [nM] | AUC(0-t) (Rat pharmacokinetic test) [ng·h/mL] | Cmax (Rat pharmacokinetic test) [ng/mL] | Tmax (Rat pharmacokinetic test) [min] | Compound | IC50 [1] [nM] | inhibition in vivo at 50 mg/kg [2, 3] [%] | inhibition in vivo at 50 mg/kg [2, 4] [%]
1.12 | 2480 | 823 | 25.2 | COc1ccc([C@@H]2CN(C(=O)[C@@H](O)CO)C[C@@]2(C)[C@@H](C)O)cc1OC1CN(c2ncc(C)cc2F)C1 [Compound 004, (S)-1-((3S,4S)-4-(3-((1-(3-fluoro-5-methylpyridin-2-yl)azetidin-3-yl)oxy)-4-methoxyphenyl)-3-((R)-1-hydroxyethyl)-3-methylpyrrolidin-1-yl)-2,3-dihydroxypropan-1-one] | 5.13 | 39.6 | 58.6
3.94 | 1530 | 735 | 30 | COc1ccc([C@@H]2CN(C(=O)[C@@H](O)CO)C[C@@]2(C)[C@@H](C)O)cc1OC1CN(c2ccc(C)c(C)n2)C1 [Compound 007, (S)-1-((3S,4S)-4-(3-((1-(5,6-dimethylpyridin-2-yl)azetidin-3-yl)oxy)-4-methoxyphenyl)-3-((R)-1-hydroxyethyl)-3-methylpyrrolidin-1-yl)-2,3-dihydroxypropan-1-one] | 2.24 | 52.1 | 66.4
1.07 | 294 | 126 | 25.2 | COc1ccc([C@@H]2CN(C(=O)[C@@H](O)CO)C[C@@]2(C)[C@@H](C)O)cc1OC1CN(c2ccc(Cl)c(C)n2)C1 [Compound 011, (S)-1-((3S,4S)-4-(3-((1-(5-chloro-6-methylpyridin-2-yl)azetidin-3-yl)oxy)-4-methoxyphenyl)-3-((R)-1-hydroxyethyl)-3-methylpyrrolidin-1-yl)-2,3-dihydroxypropan-1-one] | 1.55 | 47.4 | 63.3
0.41 | 190 | 68.2 | 30 | COc1ccc([C@@H]2CN(C(=O)[C@@H](O)CO)C[C@@]2(C)[C@@H](C)O)cc1OC1CN(c2ccc(C)cn2)C1 [Positive control compound, reference compound] | 3.32 | 44.4 | 49
